Laboratory results as given in US20220119794A1, “CHEMICALLY PROGRAMMED NEUTROPHILS AND USES THEREOF” (VIRGINIA POLYTECHNIC INSTITUTE AND STATE UNIVERSITY, priority 2018, published 2022).

Assays:
ApoE−/− mice = test: Subclinical low dose LPS injection in ApoE−/− mice: atherosclerotic lesions, circulating mediators; type: in vivo; settings: for lesional oxCAMKII levels: low dose LPS vs PBS
Procedure: (§1) Experimental animals and LPS injection. Male ApoE−/− mice (6 to 8-week old) on the C57 BL/6 background were purchased from the Jackson Laboratory and fed with regular diet or High Fat Diet. Either PBS or subclinical dose LPS (5 ng per kg body weight) was intraperitoneally injected every 3 days for 1 month. Then, the mice were sacrificed and tissues were harvested for further analyses. All animal procedures were in accordance with the US National Institutes of Health Guide for the Care and Use of Laboratory Animals and approved by the Intuitional Animal Care and Use Committee of Virginia Tech.
Analyses of atherosclerotic lesions. Histological analyses were performed on fresh-frozen and optimal cutting temperature (OCT) compound-embedded proximal aortic sections ([…]). Slides were fixed in 4% neutral buffered formalin for 5 min, followed by H&E or Oil Red O staining. Collagen staining was performed using the Picrosirius Red Stain Kit (Poly-Sciences) according to the manufacturer's instructions. The samples were observed under a light microscope. The percentages of total lesion area, lipid deposition, and collagen composition were calculated. For immunofluorescence staining, proximal aortic sections were fixed with 4% neutral buffered formalin for 5 min, permeabilized with 0.1% saponins, and blocked with 10% normal goat serum (Jackson ImmunoResearch) for 1 hour. To detect lesional neutrophils, the samples were stained with Alexa Fluor 647-conjugated anti-Ly6G antibody (1:50 dilution; BioLegend, no. 127610). To detect lesional macrophages, the samples were costained with eFluor 660-conjugated anti-CD68 (1:100 dilution; Thermo Fisher Scientific, no. 50-0681-82) and rabbit anti-SR-A (1:100 dilution; Thermo Fisher Scientific, no. PA5-22956) antibodies, followed by staining with DyLight 488-conjugated goat anti-rabbit immunoglobulin G (IgG) (1:100 dilution; Thermo Fisher Scientific, no. 35552) in the dark at room tem-perature for 1 hour. To detect oxCAMKII levels, the samples were stained with rabbit anti-oxCaMKII antibody (1:100 dilution; Millipore, no. 07-1387) at 4° C. overnight and then with DyLight 488-conjugated goat anti-rabbit IgG (1:100 dilution; Thermo Fisher Scientific, no. 35552) in the dark at room temperature for 1 hour. 4′,6-Diamidino-2-phenylindole was used to stain nucleus. The samples were observed under a confocal microscope.
(§2) ELISA and determination of plasma lipids. For in vivo analyses, plasma was collected from the mice at time of sacrificing. For in vitro analyses, purified BM neutrophils were cultured in complete RPMI medium with G-CSF (100 ng/ml) in the presence of PBS, subclinical dose LPS (100 pg/ml), oxLDL (10 μg/ml) or 4-PBA (1 mM), and supernatant was collected after 2 d. ELISA kit of MPO was purchased from ThermoFisher, and ELISA kits of MMP9, LTB4 and TGF-β1 were purchased from R&D Systems. Cholesterol quantitation kit was purchased from Sigma-Aldrich, and triglyceride quantification kit was purchased from BioVision.

mice = mice repeatedly injected with 1.5 mg/kg LPS; cited from earlier work
[1] = system: oxCaMKII and 5-LOX in BM neutrophils; test: Immunoblotting of oxCaMKII and 5-LOX in neutrophils; type: cell-based, C57 BL/6 mice; settings: LPS 100 pg/ml, vs PBS
Procedure: Immunoblotting. Purified BM neutrophils were cultured in complete RPMI medium with G-CSF (100 ng/ml) in the presence of PBS, subclinical dose LPS (100 pg/ml), oxLDL (10 μg/ml) or 4-PBA (1 mM), and total cell lysate was extracted on day 2. Protein samples were separated with SDS-PAGE and transferred to PVDF membranes, which were probed with anti-oxCaMKII (Millipore, #07-1387, 1:500 dilution), anti-5 LOX (Cell Signaling, #3289S, 1:500 dilution), and anti-β-actin (Santa Cruz, #sc-47778, 1:1000 dilution) primary antibodies followed by horseradish peroxidase-conjugated anti-rabbit IgG (Cell Signaling, #7074S, 1:1000 dilution) or anti-mouse IgG (Cell Signaling, #7076S, 1:1000 dilution) secondary antibodies. Images were developed by a chemiluminescence ECL detection kit (ThermoFisher).

BM neutrophils [2] = test: Lysosome-peroxisome fusion by confocal microscopy; type: cell-based, C57 BL/6 mice; settings: LPS 100 pg/ml, 2 d, vs PBS
Procedure: Confocal Microscopy. Purified BM neutrophils were cultured in complete RPMI medium with G-CSF (100 ng/ml) in the presence of PBS, subclinical dose LPS (100 pg/ml), or 4-PBA (1 mM) for 2 d. To determine lysosome-peroxisome fusion, the cells were fixed with 4% PFA, deposited on slides through cytospin, and permeabilized with 0.2% Trinton X-100. The cells were blocked and stained with primary rabbit anti-mouse PMP70 antibody (1:1000) supplied in SelectFX® Alexa Fluor® 488 Peroxisome Labeling Kit (ThermoFisher, #S34201), followed by staining with Alexa Fluor 488-goat anti-rabbit secondary antibody (1:1000) supplied in the kit. After extensive washing with PBS, the cells were then stained with Cy3-anti-LAMP1 antibody (Abcam, #Ab67283, 1:1000) and observed under a confocal microscope.

BM neutrophils [3] = test: Real-time RT-PCR of miR-24 and miR-126 in neutrophil cultures; type: cell-based, C57 BL/6 mice; settings: LPS 100 pg/ml, 2 d, vs PBS
Procedure: Real-Time RT-PCR for detecting of miRNAs. For in vivo analyses, plasma was collected from the mice at time of sacrificing. Circulating miRNAs were isolated with miRNeasy Serum/Plasma kit (Qiagen). For in vitro analyses, purified BM neutrophils were cultured in complete RPMI medium with G-CSF (100 ng/ml) in the presence of PBS, subclinical dose LPS (100 pg/ml), or 4-PBA (1 mM), and miRNAs were isolated with miRNeasy mini kit (Qiagen) after 2 d. TaqMan miRNA Assay kits for detection of U6, miR-16, miR-24, and miR-126 were purchased from ThermoFisher. Real-time RT-PCR was performed following the manual. U6 expression was used as the internal control for miRNA expressions in neutrophil cultures, and miR-16 expression was used as the internal control for plasma miRNA expressions.

BM neutrophils [4] = test: Intracellular ROS detection with CellROX; type: cell-based, C57 BL/6 mice; settings: LPS 100 pg/ml, vs PBS
Procedure: In vitro neutrophil priming and FACS analysis. Bone marrow (BM) neutrophils were isolated from C57 BL/6 mice and cultured in complete RPMI medium containing 10% fetal bovine serum, 2 mM L-glutamine, 1% penicillin/streptomycin in the presence of G-CSF (100 ng/ml). PBS, subclinical dose LPS (100 pg/ml), oxLDL (10 μg/ml) or 4-PBA (1 mM) was added to cell cultures. After 2 days, the cells were harvested and stained with anti-Ly6G (BioLegend, #127606, 127610 or 127618, 1:200 dilution), anti-CD11b (BioLegend, #101206, 1:200 dilution), anti-CD62L (BioLegend, #104407, 1:200 dilution), anti-Dectin1 (BioLegend, #144305, 1:200 dilution), anti-LLRC32 (BioLegend, #142904, 1:200 dilution) and anti-FPN (Novus, #NBP1-21502, 1:200 dilution) antibodies. […] Surface phenotype and transcription factor phosphorylation of Ly6G+ neutrophils were analyzed by FACSCanto II (BD Biosciences). For intracellular ROS detection, 5 μM CellROX Green Reagent (ThermoFisher) was added to neutrophil cultures 30 min before harvesting, and cells were analyzed by FACSCanto II (BD Biosciences). […]

Ly6G+ neutrophils = test: Analyses of neutrophil phenotype in vivo by flow cytometry; parameters: species or system mice
Procedure: as §1
Analyses of neutrophil phenotype in vivo. Peripheral blood cells, bone marrow (BM) cells and splenocytes were harvested from the mice treated as described above. Cells were stained with anti-Ly6G (BioLegend, #127618, 1:200 dilution), anti-CD11b (BioLegend, #101206, 1:200 dilution), anti-CD62L (BioLegend, #104407, 1:200 dilution), anti-Dectin1 (BioLegend, #144305, 1:200 dilution), anti-LLRC32 (BioLegend, #142904, 1:200 dilution) and anti-FPN (Novus, #NBP1-21502, 1:200 dilution) antibodies. The surface phenotype of Ly6G+ neutrophils was analyzed by FACSCanto II (BD Biosciences). The data were processed by Flow Jo (Tree Star).

BM neutrophils [5] = test: ELISA of MMP9, LTB4, MPO in neutrophil culture supernatant; type: cell-based, C57 BL/6 mice; settings: LPS 100 pg/ml with G-CSF, vs G-CSF alone
Procedure: as §2

[6] = system: Bone marrow (BM) neutrophils; test: In vitro neutrophil priming, surface phenotype by FACS; type: cell-based, C57 BL/6 mice; settings: LPS 100 pg/ml with G-CSF, vs G-CSF alone
Procedure: (§3) In vitro neutrophil priming and FACS analysis. Bone marrow (BM) neutrophils were isolated from C57 BL/6 mice and cultured in complete RPMI medium containing 10% fetal bovine serum, 2 mM L-glutamine, 1% penicillin/streptomycin in the presence of G-CSF (100 ng/ml). PBS, subclinical dose LPS (100 pg/ml), oxLDL (10 μg/ml) or 4-PBA (1 mM) was added to cell cultures. After 2 days, the cells were harvested and stained with anti-Ly6G (BioLegend, #127606, 127610 or 127618, 1:200 dilution), anti-CD11b (BioLegend, #101206, 1:200 dilution), anti-CD62L (BioLegend, #104407, 1:200 dilution), anti-Dectin1 (BioLegend, #144305, 1:200 dilution), anti-LLRC32 (BioLegend, #142904, 1:200 dilution) and anti-FPN (Novus, #NBP1-21502, 1:200 dilution) antibodies. In some experiments, the cells were fixed and permeabilized using transcription factor phospho buffer set (BD Biosciences), and then stained with primary anti-p-STAT1 (Cell Signaling, #8009S, 1:50 dilution), anti-ATF4 (Proteintech, #10835-1-AP, 1:50 dilution), and anti-KLF2 (Novus, #NBP2-61812, 1:100 dilution) antibodies followed by staining with Alexa Fluor 488 conjugated goat anti-rabbit IgG (Abcam, #ab150077, 1:2000 dilution). Surface phenotype and transcription factor phosphorylation of Ly6G+ neutrophils were analyzed by FACSCanto II (BD Biosciences). For intracellular ROS detection, 5 μM CellROX Green Reagent (ThermoFisher) was added to neutrophil cultures 30 min before harvesting, and cells were analyzed by FACSCanto II (BD Biosciences). The data were processed by Flow Jo (Tree Star).

BM neutrophils [7] = test: Surface phenotype of neutrophils before transfer, polarization for 24 h; type: cell-based, mice; settings: polarized for 24 hours, vs PBS
Procedure: Bone marrow neutrophils were purified and treated with PBS, super-low-dose LPS (100 pg/ml) or 4-PBA (1 mM) for 24 h (FIGS. 16A-16B) and 48 h (FIGS. 16C-16D). The cells were stained with Annexin-V and PI, and the viability (percentage of Annexin-V-/PI-population) was determined by flow cytometry. (FIG. 16E) Surface phenotype of neutrophils was analyzed by flow cytometry after polarization for 24 h. Data are representative of three independent experiments, and error bars represent means±S.E.M. *P<0.05, **P<0.01 and ***P<0.001 as compared with PBS group; one-way ANOVA. (n=5 for each group).
Adoptive transfer of in vitro neutrophils. Bone marrow (BM) cells were isolated from ApoE−/− mice and BM neutrophils (Ly6G+ population) were purified by FACS sorting with >99.5% purity. The cells were cultured in complete RPMI with G-CSF (100 ng/ml) in the presence of subclinical dose LPS (100 pg/ml) or 4-PBA (1 mM) for 24 h. Cells were washed three times with PBS and suspended in PBS for injection. HFD-fed ApoE−/− mice were transfused with 2×10^6 neutrophils in 200 μl PBS once weekly through intravenous injection for 4 weeks. One week after the last cell transfer, mice were sacrificed and tissues were harvested for subsequent analyses.

[8] = system: p-STAT1, ATF4, KLF2 in BM neutrophils; test: p-STAT1, ATF4 and KLF2 levels in neutrophils by flow cytometry; type: cell-based, C57 BL/6 mice; settings: LPS 100 pg/ml, vs PBS
Procedure: as §3

[9] = HFD-fed ApoE−/− mice, LPS 5 ng/kg body weight for 4 weeks, vs PBS
[10] = LPS-injected vs PBS-injected mice
[11] = LPS-injected vs PBS-injected mice, blood, spleen, bone marrow

lipopolysaccharide [LPS]
atherosclerotic plaque size (ApoE−/− mice; [9]): significantly larger
circulating MPO (ApoE−/− mice; [9]): remarkable elevation
circulating levels of TGFβ (ApoE−/− mice; [9]): significantly reduced
collagen content within the plaque (ApoE−/− mice; [9]): significantly reduced
plasma LTB4 level (ApoE−/− mice; [9]): significant elevation
plasma MMP9 level (ApoE−/− mice; [9]): significant elevation
lesional oxCAMKII levels (ApoE−/− mice; HFD-fed ApoE−/− mice): significantly elevated
lesional oxCAMKII levels (ApoE−/− mice; RD-fed ApoE−/− mice): significantly elevated
necrotic cores (mice): enlarged
numbers of circulating neutrophils (mice): elevated numbers
plaque collagen content (mice): reduced
5-LOX level [1]: increased levels
oxCAMKII level [1]: increased levels
fusion between peroxisome and lysosome (BM neutrophils [2]): disruption of proper fusion
miR-24 expression (BM neutrophils [3]): induced
miR-126 expression (BM neutrophils [3]): potently suppressed
intracellular ROS level (BM neutrophils [4]): significantly higher levels
neutrophil surface level of FPN (Ly6G+ neutrophils; [10]): significantly reduced
neutrophil surface level of LRRC32 (Ly6G+ neutrophils; [10]): significantly reduced
neutrophil surface CD11b (Ly6G+ neutrophils; [11]): significantly elevated
neutrophil surface Dectin1 (Ly6G+ neutrophils; [11]): significantly elevated
neutrophil surface-attached CD62L (Ly6G+ neutrophils; [11]): significant reduction
percentages of neutrophils in blood, spleens and atherosclerotic plaques (Ly6G+ neutrophils; mice chronically injected with LPS vs PBS): higher percentages
LTB4 in supernatant (BM neutrophils [5]): Significantly higher levels
MMP9 in supernatant (BM neutrophils [5]): Significantly higher levels
MPO in supernatant (BM neutrophils [5]): Significantly higher levels
surface CD11b [6]: Significantly elevated levels
surface CD62L [6]: significantly reduced levels
surface Dectin-1 [6]: Significantly elevated levels
surface FPN [6]: significantly reduced levels
surface LRRC32 [6]: significantly reduced levels
CD11b expression (BM neutrophils [7]): elevated expressions
CD62L expression (BM neutrophils [7]): reduced expressions
Dectin-1 expression (BM neutrophils [7]): elevated expressions
FPN expression (BM neutrophils [7]): reduced expressions
LRRC32 expression (BM neutrophils [7]): reduced expressions
cellular level of ATF4 [8]: significantly reduced
cellular level of KLF2 [8]: significantly reduced
p-STAT1 level [8]: significantly elevated levels
